Consider two compounds from patent US4585877A, “Process for preparing 1,8-diethyl-1,3,4,9-tetrahydropyrano(3,4-b)-indole-1-acetic acid, etodolac” (American Home Products Corporation, priority 1985, dated 1986).

SMILES strings stand for the structures. Read-outs that look alike come from different tables or passages of the source.

Experiment [1] relates to adjuvant edema. The experiment in a line: Preventive Adjuvant Edema test (antiinflammatory activity). It counts as in vivo. The following applies: po.
Experiment [2] has as its system Phenylquinone-induced writhing. Description: Effects on Phenylquinone-Induced Writhing in Mice test (analgesic activity). The class given is in vivo. The following applies: Mus musculus, po, read-out: antinociceptive ED50. A general note: An intraperitoneal irritant provokes the stretching counted in writhing tests.

One may read the ED50 as the dose at which the effect has come halfway, by size or by number of responders. As to `CC(=O)Oc1ccccc1C(=O)O` [aspirin], the values for the ED50 in experiment [1] and in experiment [2] were 184 mg/kg and 54 mg/kg, respectively.

With `CCc1cccc2c3c([nH]c12)C(CC)(CC(=O)O)OCC3` (stereo not shown) [etodolac, 1,8-Diethyl-1,3,4,9-tetrahydropyrano[3,4-b]indole-1-acetic Acid], the ED50 in experiment [1] (Preventive Adjuvant-Edema, p.o., read-out: ED50) amounted to 4 mg/kg; in experiment [2] (Phenylquinone-induced writhing in mice, p.o.) it was 154 mg/kg.
